The values that follow come from patent publication US20140329766A1, “Prophylactic Compositions for Management of Microbial Infections in Patients with Brain Injury” (UTI LIMITED PARTNERSHIP, priority 2011, published 2014).

Molecules are shown by their SMILES. Entries after “also recorded” stand apart in the source; their conditions may differ.

One data set has as its system post-stroke infections. Description: Bacteriological analysis (CFU) of blood, lungs, liver and spleen after MCAO. The format is in vivo, mice. The settings on record: post-ischemic mice 24 h after MCAO; α-GalCer 2 μg/mouse i.v. 2 h after MCAO (FIGS. 44A-44D). How it is done: Mice underwent the mid-cerebral artery occlusion (MCAO) model of cerebral ischemia-reperfusion injury as previously described (Connolly, Jr. et al., 1996; Wong et al., 2008). Male mice of 8-12 weeks old were anesthetized by intraperitoneal injection of a mixture of 10 mg/kg xylazine hydrochloride (MTC Pharmaceuticals, Cambridge, ON) and 200 mg/kg ketamine hydrochloride (Rogar/STB, London, ON). Body temperature was maintained at 37° C. using a heating pad and temperature regulator with rectal probe. Mice were randomly divided into 2 groups: (i) sham-operated, and (ii) MCAO-operated. All surgical instruments were sterilized before the surgery. Before any incision, the area was swabbed with ethanol. To induce MCAO, a 10-mm incision was made on the right-hand side of the neck. Then, the common carotid artery, external carotid artery, and internal carotid artery were dissected free. The external carotid artery was further dissected distally, then coagulated and cut to serve as a stump. After applying temporary clamps at the common carotid artery and internal carotid artery, a monofilament with a silicon coating diameter of 0.21-0.23 mm (Doccol Corporation, Redlands, Calif., USA) was inserted into the stump of the external carotid artery. The monofilament then advanced a defined distance (12 mm) so that the distal end of the monofilament came to rest across the origin of the MCA. The stump of external carotid artery was tied off. The wound on the neck of the mouse was sutured and the mouse was then transferred onto a heat pad to maintain its body temperature at 37° C. After 30 mins of occlusion, the monofilament was withdrawn to allow reperfusion to occur. The animal then recovered from the anaesthesia. Rehydration of the mice was performed every 4 h with a subcutaneous injection of electrolytes and glucose. Food pellets softened with water were placed in the cage after surgery as the mice recovered, and access to water was provided. Sham-operated animals were subjected to the initial anaesthetic and neck incision only. The animals were then allowed to recover from anaesthetic. All animals were put onto a 37° C. heat pad, post-surgery, to recover from anaesthesia until euthanized.
The anaesthetized mice from Example 1 were washed with 70% ethanol under sterile conditions. Blood was collected by cardiac puncture. The lungs, liver and spleen were removed after thoracotomy and homogenized. For determination of colony forming units (CFU), 10 μl of tissue homogenate or blood was serially diluted, plated onto brain heart infusion (BHI) agar plates supplemented with 5% sheep blood (Daylnn Biologicals, Alberta, Canada), incubated at 37° C. for 18 h, and bacterial colonies were counted.
The anaesthetized mice from Example 7 were washed with 70% ethanol under sterile conditions. Blood was collected by cardiac puncture. The lungs, liver and spleen were removed after thoracotomy and homogenized. For determination of colony forming units (CFU), 10 μl of tissue homogenate or blood was serially diluted, plated onto brain heart infusion (BHI) agar plates supplemented with 5% sheep blood (Daylnn Biologicals, Alberta, Canada), incubated at 37° C. for 18 h, and bacterial colonies were counted.

Data set [1] is described as follows: Brain infarct size after MCAO. The format is in vivo, mice. The settings on record: post-ischemic mice, single dose of α-GalCer (FIG. 45A).
A further data set relates to IFNγ. In words: Serum cytokine IFNγ level in peripheral blood (Luminex). The format is in vivo. The settings on record: post-ischemic mice 24 h after MCAO; α-GalCer 2 μg/mouse i.v. 2 h after MCAO (FIG. 43A). How it is done:
Levels of the cytokine IFNγ present in peripheral blood were determined by collecting blood samples by cardiac puncture, which were then allowed to clot at room temperature for at least 30 mins. The samples were then centrifuged at 400×g for 10 mins for the retrieval of serum. The serum samples were analyzed for the cytokine IFNγ by using a multiplex mouse cytokine/chemokine kit, and a Luminex 200 apparatus according to manufacturer's instructions. The data were analyzed with the StarStation V.2.3 software from Applied Cytometry Systems (UK).

Data set [2] can be described thus: Lung injury assessment (MPO activity, lung edema). The format is in vivo. The settings on record: post-ischemic mice 24 h after MCAO. The protocol:
The lungs of anaesthetized mice were removed after specified period of reperfusion. For determination of lung myeloperoxidase (MPO) activity (an indicator of lung inflammation), samples of lungs were removed, weighed, immediately frozen in liquid nitrogen and stored at −80° C. until the MPO activity assay was performed. Myeloperoxidase activity was measured using an assay previously described (Krawisz et al., 1984) and modified to be used in a 96-well microtitre plate. Values are expressed as units of MPO activity per milligram of lung tissue (U/mg tissue). For determination of lung fluid content, the left lobes were dissected gently dried using a blotting paper, and weighed. The tissues were dried at 55° C. for 72 h and reweighed. The percentage of lung weight attributed to fluid was calculated as an indicator of lung edema formation.
The lung tissues were removed at 24 h post-MCAO and assessed for: (i) myeloperoxidase activity as a measure of neutrophil infiltration, and (ii) for lung edema.

The next data set has as its system tumors. The settings on record: cited from earlier work.

`CCCCCCCCCCCCCCCCCCCCCCCCCCC(=O)N[C@@H](COC1OC(CO)C(O)C(O)C1O)[C@H](O)[C@H](O)CCCCCCCCCCCCCC` (stereo partly drawn) [α-GalCer, α-galactosylceramide]: the “infections (bacterial loads in peripheral blood, lungs, livers, spleens)” value with post-stroke infections was “reduced; also recorded: suppressed the occurrence of microbial infections”. Moreover, the infarct sizes entry in data set [1] is recorded as “no notable differences”. Further, in the data set on IFNγ, the “systemic levels of endogenous IFN-γ” value is “significantly increased”. Further, the “stroke-induced neutrophil pulmonary influx (MPO activity in lung)” value in data set [2] (2 μg/mouse i.v. 2 h after MCAO (FIG. 43B)) is “reduced”. The lung edema entry in data set [2] (2 μg/mouse i.v. 2 h after MCAO (FIG. 43C)) is recorded as “reduced”. In the data set on tumors (liver metastatic models), the growth of tumors result is recorded as “suppressed” and the “survival term of the tumor-bearing mice” value is listed as “prolonged”. Also, in the data set with tumors (murine in vivo experiments incl. subcutaneous implanted model and liver and lung metastatic models), the anti-tumor activity result is on record as “potent anti-tumor activity”.
